Patent US9580432B2, “Fused pyrimidine compound or salt thereof” (TAIHO PHARMACEUTICAL CO., LTD., priority 2013, dated 2017)

Experiments:
[1] = biological target: purified recombinant human BTK protein (Homo sapiens (Human), UniProt Q06187); assay: Measurement of BTK inhibitory activity (in vitro); type: biochemical; conditions: FL-PEPTIDE 2 substrate 1 μM, ATP 45 μM, 40 minutes at 25° C.
How it was run: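 Recombinant human BTK with FL-PEPTIDE 2 substrate (1 μM), 45 μM ATP and 10 mM MgCl2 in 20 mM HEPES pH 7.5, 2 mM DTT, 0.01% Triton X-100, 5% DMSO; 40 min at 25° C. Reaction stopped with 30 mM EDTA. Phosphorylated and unphosphorylated peptide separated and detected by microchannel capillary electrophoresis.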

[2] = test system: purified recombinant human EGFR protein / BTK; assay: BTK inhibition selectivity compared with EGFR kinase inhibitory activity (in vitro); type: biochemical; conditions: EGFR assay ATP 1.5 μM
Method: 1) Measurement of BTK Inhibitory Activity
2) Measurement of EGFR Inhibitory Activity
Therefore, a biotinated peptide (biotin-[…]) was produced by referring to the amino acid sequence of the peptide. The purified recombinant human EGFR protein used in the test was purchased from Carna Biosciences, Inc.
With regard to the measurement of the inhibitory activity of the compounds, firstly, the compounds of the present invention were diluted stepwise with dimethyl sulfoxide (DMSO). […] The reaction was terminated by adding EDTA thereto in order to obtain a final concentration of 24 mM. Subsequently, a detection liquid containing Eu-labeled anti-phosphorylated tyrosine antibody PT66 (PerkinElmer, Inc.) and […] APC-SA (PerkinElmer, Inc.) was added thereto, and the system was left to stand for 2 hours or longer at room temperature.
3) BTK Inhibition Selectivity

A431 cells / TMD8 cells = assay: Proliferation inhibitory activity against cell lines expressing BTK and EGFR (in vitro), comparison of selectivity; type: cell-based, human; conditions: ratio from GI50 (nM), 3 days culture, CELLTITER GLO
How it was run: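 BTK-expressing TMD8 DLBCL cells (RPMI1640/10% FBS) and EGFR-overexpressing A431 epidermoid carcinoma cells (DMEM/10% FBS) cultured 1 day, then exposed to compound (0.2% DMSO final) for 3 days at 37° C. Luminescence read-out; inhibition ratio % = (C−T)/(C−C0)×100, with A431/TMD8 ratio as selectivity index.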

purified recombinant human BTK protein, sequence (Q06187 whole entry): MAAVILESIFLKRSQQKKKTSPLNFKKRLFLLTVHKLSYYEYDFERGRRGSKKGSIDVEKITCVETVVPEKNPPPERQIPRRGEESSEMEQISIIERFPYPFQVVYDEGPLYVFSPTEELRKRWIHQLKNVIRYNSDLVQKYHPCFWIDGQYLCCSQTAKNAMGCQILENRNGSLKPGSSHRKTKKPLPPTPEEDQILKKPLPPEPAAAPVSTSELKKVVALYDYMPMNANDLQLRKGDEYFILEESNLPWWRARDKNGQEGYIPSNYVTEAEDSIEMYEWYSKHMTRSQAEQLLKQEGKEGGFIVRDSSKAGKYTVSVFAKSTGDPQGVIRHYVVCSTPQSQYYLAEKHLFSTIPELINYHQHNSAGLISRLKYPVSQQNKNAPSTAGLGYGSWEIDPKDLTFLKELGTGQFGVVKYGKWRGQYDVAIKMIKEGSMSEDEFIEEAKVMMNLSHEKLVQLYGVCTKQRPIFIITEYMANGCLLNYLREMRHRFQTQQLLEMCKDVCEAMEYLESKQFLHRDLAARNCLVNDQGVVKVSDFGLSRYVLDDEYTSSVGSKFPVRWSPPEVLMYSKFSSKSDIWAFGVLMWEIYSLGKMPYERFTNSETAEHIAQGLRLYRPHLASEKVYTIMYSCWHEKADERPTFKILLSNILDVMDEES

SMILES | IC50 [1] | EGFR inhibitory activity IC50 value (nM)/BTK inhibitory activity IC50 value (nM) [2] | A431 cell proliferation inhibition ratio/TMD8 cell proliferation inhibitio ratio (A431 cells / TMD8 cells)
CN(C)C/C=C/C(=O)N1CC[C@@H](n2nc(C(=O)Nc3nc4cc(-c5ccccc5)ccc4o3)c3c(N)ncnc32)C1 [Example 42, (R,E)-4-amino-N-(5-phenylbenzo[d]oxazol-2-yl)-1-(1-(4-(dimethylamino)but-2-enoyl)pyrrolidin-3-yl)-1H-pyrazolo[3,4-d]pyrimidine-3-carboxamide] | 0.771 nM | 19.4 | 3934.1
C=CC(=O)N1CC[C@@H](n2nc(C(=O)Nc3nc4cc(CCOC)ccc4o3)c3c(N)ncnc32)C1 [Example 40, (R)-1-(1-acryloylpyrrolidin-3-yl)-4-amino-N-(5-(2-methoxyethyl)benzo[d]oxazol-2-yl)-1H-pyrazolo[3,4-d]pyrimidine-3-carboxamide] | 2.09 nM | 10.0 | >3159.6
C=CC(=O)N1CC[C@@H](n2nc(C(=O)Nc3nc4cc(C#N)ccc4o3)c3c(N)ncnc32)C1 [Example 39, (R)-1-(1-acryloylpyrrolidin-3-yl)-4-amino-N-(5-cyanobenzo[d]oxazol-2-yl)-1H-pyrazolo[3,4-d]pyrimidine-3-carboxamide] | 1.12 nM | 37.5 | >3510.0
C=CC(=O)N[C@H]1CC[C@H](n2nc(C(=O)Nc3nc4ccccc4o3)c3c(N)ncnc32)CC1 [Example 72, 1-((1R,4R)-4-acrylamidocyclohexyl)-4-amino-N-(benzo[d]oxazol-2-yl)-1H-pyrazolo[3,4-d]pyrimidine-3-carboxamide] | 28.1 nM | 12.4 | >2802.7
C=CC(=O)N1CCC[C@@H](n2nc(C(=O)Nc3nc4ncccc4o3)c3c(N)ncnc32)C1 [Example 9, (R)-1-(1-acryloylpiperidin-3-yl)-4-amino-N-(oxazolo[4,5-b]pyridin-2-yl)-1H-pyrazolo[3,4-d]pyrimidine-3-carboxamide] | 1.37 nM | 28.4 | 8196.7
C=CC(=O)N1CCC(Cn2nc(C(=O)Nc3nc4ccccc4o3)c3c(N)ncnc32)CC1 [Example 68, 1-((1-acryloylpiperidin-4-yl)methyl)-4-amino-N-(benzo[d]oxazol-2-yl)-1H-pyrazolo[3,4-d]pyrimidine-3-carboxamide] | 13.2 nM | 11.4 | >4785.8

The remaining compounds from weak to strong by IC50 [1], led by results:

IC50 [1] | EGFR inhibitory activity IC50 value (nM)/BTK inhibitory activity IC50 value (nM) [2] | SMILES | A431 cell proliferation inhibition ratio/TMD8 cell proliferation inhibitio ratio (A431 cells / TMD8 cells)
5.89 nM | 42.0 | C=CC(=O)N[C@H]1CC[C@@H](n2nc(C(=O)Nc3nc4ccccc4o3)c3c(N)ncnc32)CC1 [Example 71, 1-((1S,4S)-4-acrylamidocyclohexyl)-4-amino-N-(benzo[d]oxazol-2-yl)-1H-pyrazolo[3,4-d]pyrimidine-3-carboxamide] | >7657.0
0.811 nM | 157.2 | CCN(CC)C/C=C/C(=O)N1CCC[C@@H](n2nc(C(=O)Nc3nc4cc(Cl)ccc4o3)c3c(N)ncnc32)C1 [Example 17, (R,E)-4-amino-N-(5-chlorobenzo[d]oxazol-2-yl)-1-(1-(4-(diethylamino)but-2-enoyl)piperidin-3-yl)-1H-pyrazolo[3,4-d]pyrimidine-3-carboxamide] | >12345.7
0.788 nM | 121.3 | CC(C)N(C)C/C=C/C(=O)N1CCC[C@@H](n2nc(C(=O)Nc3nc4cc(Cl)ccc4o3)c3c(N)ncnc32)C1 [Example 18, (R,E)-4-amino-N-(5-chlorobenzo[d]oxazol-2-yl)-1-(1-(4-(isopropyl(methyl)amino)but-2-enoyl)piperidin-3-yl)-1H-pyrazolo[3,4-d]pyrimidine-3-carboxamide] | >15625.0
